# Source: US20240100104A1, “METHODS AND COMPOSITION FOR THE TREATMENT OF AUTISM SPECTRUM DISORDER” (The General Hospital Corporation, priority 2020, published 2024)
# What was measured:
# [1] = tested on: patients with ASD; assay: Clinical Global Impression-Improvement (CGI-I); type: in vivo, human; details: vs control group; P<0.05 only for combination
# Protocol: FIG. 2. Proportion of subjects displaying improvement in CGI-I overtime among all subjects within a treatment condition.
# Clinical Global Impression (CGI) was assessed to evaluate ASD symptoms and the relative extent of improvement in symptoms at each visiting time. […] The waterfall data of CGI score reduction in each group is shown in supplement FIG. 6.
# This clinical trial is a randomized, double-blind, and placebo-controlled study in accordance with the Consolidated Standards of Reporting Trials (CONSORT) guidelines. Subjects were randomized to two groups with 1:1 ratio into this two-stage study. To achieve a statistical power of 80% for primary outcomes with a large effect size of 0.8 (Cohen's d) assumed, a total of 60 participants (30 in each arm) were required. However, as we are primarily interested in studying the preliminary effects of the proposed treatment, we enrolled and randomized 35 subjects who were included in the data analysis. In stage 1, the probiotics group received oral probiotics PS128 while the placebo group received oral placebo for 16 weeks. In stage 2, both groups continued their respective administration and simultaneously added intranasal oxytocin spray. The treatment proceeded for a total of 28 weeks with 3 visits for outcomes measurement at 0, 16 weeks, and 28 weeks (V1, V2, and V3, respectively). […]
# [2] = tested on: mouse models of ASD; details: two mouse models of ASD; cited from earlier work
# [3] = 32 IU per day, patients age 3-8 years old; cited from earlier work
compound,measurement,setting,value
"CC[C@H](C)[C@@H]1NC(=O)[C@H](Cc2ccc(O)cc2)NC(=O)[C@@H](N)CSSC[C@@H](C(=O)N2CCC[C@H]2C(=O)N[C@@H](CC(C)C)C(=O)NCC(N)=O)NC(=O)[C@H](CC(N)=O)NC(=O)[C@H](CCC(N)=O)NC1=O [OXT, Oxytocin]",proportion of subjects showing improvement in CGI-I (CGI-I≤3),[1],"non-significant, though a trend of improvement"
same,effect on sociability,[2],enhanced sociability
same,safety of dosage,[3],safe and adequate
